Data: patent publication US6803383B2, “Inhibition of angiogenesis and tumor growth” (The Scripps Research Institute, priority 2000, dated 2004)
Each block holds one molecule with its values, some of them ahead of it.

Columns and labels:
[1] = target: T1, MMP2 binding to integrin αvβ3 (Homo sapiens, UniProt P05106+P06756); test: Solid phase integrin binding assay: biotinylated MMP2 binding to immobilized integrin; conditions: bMMP2 3-5 nM, FIG. 2A
T1 construct: purchased Merck KGaA or Chemicon International (integrin); Chemicon (proMMP2) or Calbiochem (active MMP2)
T1 sequence (P06756 31-889 limits assumed): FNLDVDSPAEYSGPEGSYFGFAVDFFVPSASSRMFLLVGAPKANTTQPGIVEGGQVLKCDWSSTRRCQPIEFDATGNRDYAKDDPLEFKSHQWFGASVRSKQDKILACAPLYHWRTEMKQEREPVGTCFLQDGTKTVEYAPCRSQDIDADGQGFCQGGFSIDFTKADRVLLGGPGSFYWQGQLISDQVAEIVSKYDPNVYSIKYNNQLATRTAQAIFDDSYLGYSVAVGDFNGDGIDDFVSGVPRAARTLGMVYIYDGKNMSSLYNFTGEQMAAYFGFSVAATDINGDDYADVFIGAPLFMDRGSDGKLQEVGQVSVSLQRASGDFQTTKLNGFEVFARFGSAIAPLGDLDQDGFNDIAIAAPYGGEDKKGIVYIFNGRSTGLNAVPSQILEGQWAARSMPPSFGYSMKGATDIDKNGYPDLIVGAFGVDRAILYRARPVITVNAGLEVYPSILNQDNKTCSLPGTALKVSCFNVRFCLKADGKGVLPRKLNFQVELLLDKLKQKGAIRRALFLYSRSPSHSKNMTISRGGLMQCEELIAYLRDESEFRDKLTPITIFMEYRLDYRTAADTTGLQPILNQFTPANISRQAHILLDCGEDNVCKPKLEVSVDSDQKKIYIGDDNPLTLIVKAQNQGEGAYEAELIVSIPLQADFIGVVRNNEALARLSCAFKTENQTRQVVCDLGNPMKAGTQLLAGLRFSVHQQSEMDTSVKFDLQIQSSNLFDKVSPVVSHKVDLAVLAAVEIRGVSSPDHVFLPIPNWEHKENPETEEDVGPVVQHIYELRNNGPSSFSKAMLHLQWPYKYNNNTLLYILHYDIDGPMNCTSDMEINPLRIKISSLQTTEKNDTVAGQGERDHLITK
T1 sequence (P06756 891-1048 limits assumed): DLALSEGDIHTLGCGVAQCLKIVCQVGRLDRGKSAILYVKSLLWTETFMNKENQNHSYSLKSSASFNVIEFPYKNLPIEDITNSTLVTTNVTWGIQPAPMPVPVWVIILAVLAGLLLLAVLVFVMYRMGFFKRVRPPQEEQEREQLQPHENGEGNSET
T1 sequence (P05106 27-788): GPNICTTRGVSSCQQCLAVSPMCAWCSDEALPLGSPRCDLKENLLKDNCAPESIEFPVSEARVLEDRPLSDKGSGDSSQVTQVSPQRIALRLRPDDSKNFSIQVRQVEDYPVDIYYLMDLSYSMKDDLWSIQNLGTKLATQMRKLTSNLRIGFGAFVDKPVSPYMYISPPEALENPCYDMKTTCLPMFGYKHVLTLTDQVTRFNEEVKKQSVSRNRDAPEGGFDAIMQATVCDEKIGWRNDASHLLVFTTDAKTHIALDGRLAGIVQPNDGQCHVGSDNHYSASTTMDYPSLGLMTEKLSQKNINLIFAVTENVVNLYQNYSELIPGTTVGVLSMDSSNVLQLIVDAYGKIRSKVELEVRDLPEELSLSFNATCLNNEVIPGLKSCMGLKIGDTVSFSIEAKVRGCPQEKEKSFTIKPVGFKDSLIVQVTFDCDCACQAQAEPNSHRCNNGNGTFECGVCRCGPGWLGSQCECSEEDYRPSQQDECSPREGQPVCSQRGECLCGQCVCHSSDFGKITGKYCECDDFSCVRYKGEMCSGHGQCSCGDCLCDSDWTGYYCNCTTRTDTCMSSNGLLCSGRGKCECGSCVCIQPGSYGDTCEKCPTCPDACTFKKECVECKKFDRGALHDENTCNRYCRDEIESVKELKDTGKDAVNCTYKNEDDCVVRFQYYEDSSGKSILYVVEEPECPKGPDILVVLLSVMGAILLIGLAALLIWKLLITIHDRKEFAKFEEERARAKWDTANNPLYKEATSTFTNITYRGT
Experimental: (§1) Purified integrins were adsorbed overnight onto microtiter wells (1-5 μg/ml, […]) prior to blocking with Caseinblocker (Pierce, Rockford, Ill.). Purified biotinylated MMP2 (bMMP2, 3-5 nM) in binding buffer (50 mM Tris, pH 8, 150 mM NaCl, 1 mM MgCl2, 0.5 mM MnCl2) was added to the wells in the presence or absence of Compound 1, Compound 12, cyclic RGD or RAD peptides, or buffer vehicle alone. Control wells received no integrin. Biotinylated vitronectin (bVN, 1 μg/ml) was used as a reference. Bound protein was detected with HRP-anti-biotin mAb and quantitated at 450 nm with 3,3′,5,5′-tetramethylbenzidine solution (TMB; a substrate for the peroxidase) (BioRad, Hercules, Calif.).

[2] = target: T2, MMP2 and tissue inhibitor of metalloproteinase 2 (TIMP2) (Homo sapiens, UniProt P08253); test: Binding between MMP2 and TIMP2
T2 sequence (P08253 110-660): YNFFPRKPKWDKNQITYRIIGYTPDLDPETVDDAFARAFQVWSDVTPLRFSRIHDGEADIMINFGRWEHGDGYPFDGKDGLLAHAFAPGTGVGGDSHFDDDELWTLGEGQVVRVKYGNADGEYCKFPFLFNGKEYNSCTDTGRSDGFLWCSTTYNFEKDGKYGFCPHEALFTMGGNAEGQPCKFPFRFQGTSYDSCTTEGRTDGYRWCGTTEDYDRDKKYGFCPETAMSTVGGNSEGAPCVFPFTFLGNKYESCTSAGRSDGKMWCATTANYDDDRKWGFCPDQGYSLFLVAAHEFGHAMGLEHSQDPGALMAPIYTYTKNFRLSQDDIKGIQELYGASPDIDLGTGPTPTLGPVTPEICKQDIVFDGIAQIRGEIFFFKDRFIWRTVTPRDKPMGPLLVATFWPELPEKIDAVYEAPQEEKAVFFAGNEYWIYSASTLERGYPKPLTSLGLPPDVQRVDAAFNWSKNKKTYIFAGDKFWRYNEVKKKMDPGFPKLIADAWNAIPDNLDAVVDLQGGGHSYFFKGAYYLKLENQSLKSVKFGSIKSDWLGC

integrin αvβ3 = target: T3, integrin αvβ3 (Homo sapiens, UniProt P05106+P06756); test: Direct binding of [14C]-Compound 1 to immobilized integrin, solid phase
T3 construct: purchased Merck KGaA or Chemicon International
T3 sequence (P06756 31-889 limits assumed): as the sequence (P06756 31-889 limits assumed) above
T3 sequence (P06756 891-1048 limits assumed): as the sequence (P06756 891-1048 limits assumed) above
T3 sequence (P05106 27-788): as the sequence (P05106 27-788) above
Experimental: (§2) Dried wells were separated and immersed in BetaMax liquid scintillation cocktail (ICN Biochemicals, Costa Mesa, Calif.) for quantitation. From this binding curve a subsaturating concentration (3 μM) of [^14C]-Compound 1 was examined in the presence and absence of a 25-fold molar excess ([…]) of unlabeled Compound 1 or Compound 12, or 100 μM cyclic RGD or RAD peptide. Control was bVN, used and detected as described above.

integrin α5β1 = integrin α5β1 (Homo sapiens, UniProt P05556+P08648); test: Direct binding of [14C]-Compound 1 to immobilized control integrin, solid phase
integrin α5β1, sequence (P08648 42-894 limits assumed): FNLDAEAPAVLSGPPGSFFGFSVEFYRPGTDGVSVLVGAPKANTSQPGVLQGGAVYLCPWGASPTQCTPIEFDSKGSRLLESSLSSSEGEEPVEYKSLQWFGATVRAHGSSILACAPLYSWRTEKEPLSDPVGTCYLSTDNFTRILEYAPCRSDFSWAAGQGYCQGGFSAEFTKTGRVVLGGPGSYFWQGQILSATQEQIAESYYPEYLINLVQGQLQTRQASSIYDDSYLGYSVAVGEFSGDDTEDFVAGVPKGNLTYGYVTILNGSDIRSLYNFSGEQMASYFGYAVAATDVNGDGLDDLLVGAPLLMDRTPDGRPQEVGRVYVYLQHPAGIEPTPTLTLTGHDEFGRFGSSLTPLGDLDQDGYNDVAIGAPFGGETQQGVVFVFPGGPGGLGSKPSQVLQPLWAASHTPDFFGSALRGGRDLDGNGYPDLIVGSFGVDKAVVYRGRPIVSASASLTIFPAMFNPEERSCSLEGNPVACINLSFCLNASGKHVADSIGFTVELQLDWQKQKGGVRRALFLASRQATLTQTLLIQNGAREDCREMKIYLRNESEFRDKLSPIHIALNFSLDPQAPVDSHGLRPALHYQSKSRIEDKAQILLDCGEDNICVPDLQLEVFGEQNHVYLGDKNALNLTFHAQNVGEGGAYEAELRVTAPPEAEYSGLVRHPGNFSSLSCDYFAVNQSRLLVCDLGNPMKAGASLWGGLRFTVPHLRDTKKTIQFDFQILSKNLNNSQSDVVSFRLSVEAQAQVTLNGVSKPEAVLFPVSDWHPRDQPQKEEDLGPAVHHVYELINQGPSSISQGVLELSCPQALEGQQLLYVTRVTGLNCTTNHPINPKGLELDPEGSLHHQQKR
integrin α5β1, sequence (P08648 895-1049 limits assumed): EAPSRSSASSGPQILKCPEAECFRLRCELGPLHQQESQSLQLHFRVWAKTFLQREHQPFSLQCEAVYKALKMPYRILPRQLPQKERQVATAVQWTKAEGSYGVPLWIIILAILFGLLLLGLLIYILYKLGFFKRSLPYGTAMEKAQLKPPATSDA
integrin α5β1, sequence (P05556 21-798): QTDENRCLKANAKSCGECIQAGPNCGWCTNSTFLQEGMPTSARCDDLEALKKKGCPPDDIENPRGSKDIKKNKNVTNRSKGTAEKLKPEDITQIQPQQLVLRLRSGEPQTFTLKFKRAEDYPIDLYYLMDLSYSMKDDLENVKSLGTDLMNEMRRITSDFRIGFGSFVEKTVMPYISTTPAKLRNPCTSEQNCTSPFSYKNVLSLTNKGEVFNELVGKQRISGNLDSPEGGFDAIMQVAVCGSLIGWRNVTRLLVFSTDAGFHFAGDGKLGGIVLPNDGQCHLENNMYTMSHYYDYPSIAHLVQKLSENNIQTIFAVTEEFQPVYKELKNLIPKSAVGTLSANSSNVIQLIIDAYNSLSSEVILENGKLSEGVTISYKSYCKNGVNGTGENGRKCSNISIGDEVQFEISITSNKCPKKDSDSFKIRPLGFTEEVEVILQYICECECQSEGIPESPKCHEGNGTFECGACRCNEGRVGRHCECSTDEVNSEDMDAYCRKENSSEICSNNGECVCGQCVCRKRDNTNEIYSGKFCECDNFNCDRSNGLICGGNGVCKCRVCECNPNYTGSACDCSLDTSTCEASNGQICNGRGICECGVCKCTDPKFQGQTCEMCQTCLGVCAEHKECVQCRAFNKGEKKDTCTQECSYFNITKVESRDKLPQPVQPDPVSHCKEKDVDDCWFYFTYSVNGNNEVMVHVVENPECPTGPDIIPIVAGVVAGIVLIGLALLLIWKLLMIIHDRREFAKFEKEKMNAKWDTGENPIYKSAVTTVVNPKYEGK
Experimental: as §2

MMP2 [3] = target: T4, MMP2 (Homo sapiens, UniProt P08253); test: Direct binding of Compound 1 to MMP2 coated on the microtiter well; conditions: data not shown
T4 construct: purchased Calbiochem (La Jolla, Calif.)
T4 sequence (P08253 110-660): T2 sequence (P08253 110-660)

β3CS-1 cells [4] = test: Cell-mediated [3H]-collagen IV degradation via MMP2; format: cell-based, hamster; conditions: 4 nM active MMP2, 10 μM compound, FIG. 3A
Experimental: (§3) Wells had been coated overnight with 50 μl of 0.414 mCi/ml [^3H]-collagen IV (ICN Biochemicals, Costa Mesa, Calif.) and washed extensively until the radioactivity in the recovered wash solution reached background. Alternatively, cells were treated as above in the absence of MMP2, or the MMP2 solutions were added directly to the wells without cells, as controls. Collagen IV degradation was quantitated by measuring the radioactivity released into the 50 μl of culture medium as determined in a liquid scintillation counter. For the assessment of biotinylated MMP2 binding to CS-1 cells, cells were suspended in adhesion buffer and incubated with 12 nM bMMP2 for 45 minutes at 37° C. in the presence or absence of 10 μM Compound 1 or Compound 12. Cells were subsequently washed before lysis and processing for SDS-PAGE and immunoblotting with an anti-biotin mAb.

MMP2 [5] = target: T4, MMP2; test: [3H]-collagen IV degradation by purified active MMP2 without cells; format: biochemical; conditions: 4 nM active MMP2, 10 μM compound, no cells
Experimental: as §3, with “CS-1 cells or β3CS-1 cells were incubated in adhesion buffer fibroblast basal medium (FBM) supplemented with 0.5% bovine serum albumin (BSA), 0.4 mM MnCl2 and 10 μg/ml aprotinin) containing either 4 nM purified active MMP2 alone, or in combination with 10 μM Compound 1 or Compound 12 for 45 minutes at 37° C. prior to washing and addition to the [^3H]-collagen IV-coated wells. Wells” for “Wells”

CS-1 cells = test: Biotinylated MMP2 cell-binding assay, β3-negative cells; format: cell-based, hamster; conditions: 12 nM bMMP2, 10 μM compound; FIG. 3B
Experimental: as §3

β3CS-1 cells [6] = test: Biotinylated MMP2 cell-binding assay, β3-positive cells; format: cell-based, hamster
Experimental: CS-1 cells or β3CS-1 cells were incubated in adhesion buffer fibroblast basal medium (FBM) supplemented with 0.5% bovine serum albumin (BSA), 0.4 mM MnCl2 and 10 μg/ml aprotinin) containing either 4 nM purified active MMP2 alone, or in combination with 10 μM Compound 1 or Compound 12 for 45 minutes at 37° C. prior to washing and addition to the [^3H]-collagen IV-coated wells. Wells had been coated overnight with 50 μl of 0.414 mCi/ml [^3H]-collagen IV (ICN Biochemicals, Costa Mesa, Calif.) and washed extensively until the radioactivity in the recovered wash solution reached background. Alternatively, cells were treated as above in the absence of MMP2, or the MMP2 solutions were added directly to the wells without cells, as controls. Collagen IV degradation was quantitated by measuring the radioactivity released into the 50 μl of culture medium as determined in a liquid scintillation counter. […]
Immunoblotting. Equal quantities of protein were separated by SDS-PAGE under reducing conditions and electroblotted to an Immobilon-P membrane (Millipore, Bedford, Md.). The membrane was blocked and immobilized proteins were detected by incubation with an antigen-specific primary antibody, followed by an HRP-conjugated secondary antibody as required. […]

[7] = system: bFGF-induced angiogenesis on chick CAM; test: Chick chorioallantoic membrane (CAM) angiogenesis assay; format: in vivo; conditions: 10 day chick CAM, 3 μg/ml bFGF, 20 μl of 3 μM compound, 3 days; FIGS. 4A, 4B
Experimental: (§4) Angiogenesis was assessed essentially as described previously (Cell, 85, 683-93 (1996); Cell, 92, 391-400 (1998)). After stimulation with 3 μg/ml of basic fibroblast growth factor (bFGF), 10 day chick embryo CAMs were treated with 20 μl of 3 μM Compound 1 or Compound 12. Three days after induction, the CAMs were quantitated in a blind evaluation. CAMs from each group were pooled, minced, and extracted with 50 mM Tris, […], 0.1% Triton X-100 containing COMPLETE-brand protease inhibitor cocktail without EDTA (Boehringer, Mannheim, Germany) prior to analysis by zymography.

MMP2 [8] = test: Zymography of chick CAM lysates; format: in vivo; conditions: FIG. 4C
Experimental: as §4
Zymography. Chick CAM lysates were prepared as described above and equal quantities of protein were separated in the absence of reducing agents or boiling on polyacrylamide gels embedded with 0.2% gelatin. The gels were washed with 2% Triton X-100, followed by extensive washing with water prior to overnight incubation at 37° C. in collagenase buffer (50 mM Tris 7.4, 200 mM NaCl 10 mM CaCl2). Gelatinolytic activity was visualized by staining the gels with 0.5% Coomassie blue.

[9] = system: αvβ3-negative CS-1 melanoma tumors; test: Tumor growth assay on chick CAM; format: in vivo
Experimental: Primary tumors were grown on CAMs of 9-day embryos by implantation 5×10^6 CS-1 cells and incubation for 7 days. At this point, 50 mg sections of these tumors were subcultured onto fresh 9-day CAMs and allowed to implant for 24 hours before a single intravenous (IV) injection with 100 μl of 100 μM of test compounds in Hank's Balanced Saline Solution (HBSS). Buffer alone was used as control. Tumors were incubated for a total of 10 days, harvested and trimmed free of excess stromal tissue before determining wet weight and processing for histology.
Snap-frozen CS-1 tumor sections were fixed with 4% paraformaldehyde and permeablized with 0.1% Triton X-100. Sections were blocked with 5% bovine serum albumin (BSA) in phosphate buffered saline (PBS) prior to staining with an anti-vWF pAb and visualization with an Alexa 568-conjugated anti-rabbit secondary antibody. Samples were analyzed on a MRC1024 confocal microscope (BioRad, Hercules, Calif.). Blood vessel density was quantitated with a 20×objective on four fields per section and four tumors per condition.

CS-1 melanoma cells = test: In vitro growth of melanoma cells in co-culture with compound; format: cell-based, hamster; conditions: co-culture with the compound; data not shown
[10] = target: T5, vitronectin binding to integrin αvβ3 (Homo sapiens, UniProt P05106+P06756); test: Solid phase integrin binding assay: biotinylated vitronectin (bVN) binding to immobilized integrin
T5 construct: purchased Merck KGaA or Chemicon International (integrin)
T5 sequence (P06756 31-889 limits assumed): as the sequence (P06756 31-889 limits assumed) above
T5 sequence (P06756 891-1048 limits assumed): as the sequence (P06756 891-1048 limits assumed) above
T5 sequence (P05106 27-788): as the sequence (P05106 27-788) above
Experimental: as §1, §2

Molecule: O=C(CNC(=O)c1cccc(C(=O)NCC(=O)NCCCC[C@H](NC(=O)OCc2ccc(C(F)(F)F)cc2)C(=O)O)c1)NCCCC[C@H](NC(=O)OCc1ccc(C(F)(F)F)cc1)C(=O)O [Compound 1, N,N^1-Bis-[(5-(S)-carboxy-5-[((4-trifluoromethyl)benzyloxycarbonyl)amino]-pentyl)carboxamidomethyl]benzene-1,3-dicarboxamide]
Effect on MMP2 binding to integrin αvβ3 [1]: completely abrogated
Effect on binding between MMP2 and TIMP2 [2]: not inhibited
Inhibition of [14C]-Compound 1 binding to integrin αvβ3 by unlabeled compound (integrin αvβ3; 3 μM [14C]-Compound 1, 25-fold molar excess of unlabeled compound, FIG. 2C): inhibited
Direct binding to integrin αvβ3 (integrin αvβ3; [14C]-labeled Compound 1, titration, FIG. 2B): bound directly
Direct binding to control integrin α5β1 (integrin α5β1; [14C]-labeled Compound 1, FIG. 2B): minimal interaction
Direct binding to integrin α5β1 at higher concentrations (integrin α5β1; higher concentrations of compound, data not shown): negligible binding
Direct binding to MMP2 coated on the well (MMP2 [3]): no binding
Effect on MMP2-enhanced cell-mediated [3H]collagen IV degradation (β3CS-1 cells [4]): specifically abolished
Effect on [3H]collagen IV degradation by purified active MMP2 in the absence of cells (MMP2 [5]): still able to degrade
Effect on biotinylated MMP2 binding to β3-negative CS-1 cells (CS-1 cells): not diminished
Effect on enhanced biotinylated MMP2 binding to β3CS-1 cells (β3CS-1 cells [6]; 12 nM bMMP2, 10 μM compound, FIG. 3B): specifically suppressed
Biotinylated MMP2 binding to β3CS-1 cells, corrected for lane loading (β3CS-1 cells [6]; 10 μM compound, corrected by anti-actin mAb staining, FIG. 3B lane 2): reduced the binding of MMP2 to the β3CS-1 cells to the level observed in the absence αvβ3
Effect on development of new blood vessels in bFGF-stimulated CAM [7]: almost completely abolished
Levels of active MMP2 (62 kDa) in CAM tissues, treated versus untreated (MMP2 [8]): equivalent levels of active MMP2
Overall levels of MMP2 in CAM lysates (MMP2 [8]): unaffected
Overall tumor blood vessel density ([9]; anti-vWF immunofluorescence of tumor sections): gross reduction
Cell death within the tumor mass ([9]; single IV injection, 100 μl of 100 μM): significant cell death
Tumor weight ([9]; single IV injection, 100 μl of 100 μM, 10 days, wet weight): significantly retarded
Growth of transplanted CS-1 melanoma tumors on chick CAM ([9]; single IV injection, 100 μl of 100 μM, 10 days, FIG. 5A): significantly retarded
Tumor surface vasculature ([9]; single IV injection, 100 μl of 100 μM, FIG. 5A): gross reduction
Growth of CS-1 melanoma cells in vitro (CS-1 melanoma cells): not affected

Molecule: COC(=O)[C@H](CCCCNC(=O)CNC(=O)c1ccccc1)NC(=O)OCc1ccc(C(F)(F)F)cc1 [Compound 6, (S)-Methyl 6-[2-(benzoylamino)acetamido]-2-[(4-trifluoromethyl)benzyloxycarbonyl)hexanoate]
Effect on MMP2 binding to integrin αvβ3 [1]: slightly less active than Compound 1

Effect on MMP2 binding to integrin αvβ3 [1]: inactive
Molecule: COC(=O)[C@H](CCCCNC(=O)CNC(=O)COCC(=O)O)NC(=O)OCc1ccc(C(F)(F)F)cc1 [Compound 8]

Molecule: O=C(CNC(=O)c1cccc(C(=O)NCC(=O)NCCCC[C@H](NC(=O)c2ccccc2)C(=O)O)c1)NCCCC[C@H](NC(=O)c1ccccc1)C(=O)O [Compound 12, N,N′-Bis-[N-(-5-(S)-((benzoyl)amino)-5-(carboxy)pentyl)carboxamidomethyl]benzene-1,3-dicarboxamide]
Effect on MMP2 binding to integrin αvβ3 [1]: neither the control compound nor the control peptide cRADfV interfered
Effect on MMP2-enhanced cell-mediated [3H]collagen IV degradation (β3CS-1 cells [4]): negligible effect
Effect on [3H]collagen IV degradation by purified active MMP2 in the absence of cells (MMP2 [5]): still able to degrade
Effect on biotinylated MMP2 binding to β3-negative CS-1 cells (CS-1 cells): not diminished
Effect on development of new blood vessels in bFGF-stimulated CAM [7]: ineffective

Effect on MMP2 binding to integrin αvβ3 [1]: lack of effect
Inhibition of bVN binding to immobilized integrin αvβ3 by peptide ([10]; 100 μM cyclic peptide, FIG. 2D): completely abolished
Effect on vitronectin binding to integrin αvβ3 ([10]; bVN 1 μg/ml, FIG. 2A): inhibited
Molecule: cRGDfV [reference compound]
Inhibition of [14C]-Compound 1 binding to integrin αvβ3 by peptide (integrin αvβ3; 3 μM [14C]-Compound 1, 100 μM cyclic peptide, FIG. 2D): inability of the cRGDfV peptide to inhibit
